The text below walks through data of patent publication US20120040930A1, “TETRACYCLIC TERPENE SERIES COMPOUNDS, METHODS FOR PREPARING SAME, USES THEREOF AS MEDICINES AND PHARMACEUTICAL COMPOUNDS CONTAINING SAME” (priority 2005, published 2012).

Test [1] addresses T1, acetylcholinesterase (AChE) isolated from Electrophorus electricus (Electrophorus electricus, UniProt O42275).
T1 construct: AChE isolated from Electrophorus electricus; from tissue
Description: biochemical.

Test [2] has as its target T2, human serum butyrylcholinesterase (BChE) (Homo sapiens, UniProt P06276).
T2 construct: BChE isolated from human serum; from tissue; host or cells: human serum
Description: biochemical.

The mark [3] stands for this setting: AChE isolated from Electrophorus electricus, read-out: AChE IC50.
The mark [4] stands for this setting: human serum BChE, read-out: BChE.

Where two headings read alike, the source gives them in different places. A value given as a limit tells only on which side of the number the result lay.

T1 sequence (O42275 24-633): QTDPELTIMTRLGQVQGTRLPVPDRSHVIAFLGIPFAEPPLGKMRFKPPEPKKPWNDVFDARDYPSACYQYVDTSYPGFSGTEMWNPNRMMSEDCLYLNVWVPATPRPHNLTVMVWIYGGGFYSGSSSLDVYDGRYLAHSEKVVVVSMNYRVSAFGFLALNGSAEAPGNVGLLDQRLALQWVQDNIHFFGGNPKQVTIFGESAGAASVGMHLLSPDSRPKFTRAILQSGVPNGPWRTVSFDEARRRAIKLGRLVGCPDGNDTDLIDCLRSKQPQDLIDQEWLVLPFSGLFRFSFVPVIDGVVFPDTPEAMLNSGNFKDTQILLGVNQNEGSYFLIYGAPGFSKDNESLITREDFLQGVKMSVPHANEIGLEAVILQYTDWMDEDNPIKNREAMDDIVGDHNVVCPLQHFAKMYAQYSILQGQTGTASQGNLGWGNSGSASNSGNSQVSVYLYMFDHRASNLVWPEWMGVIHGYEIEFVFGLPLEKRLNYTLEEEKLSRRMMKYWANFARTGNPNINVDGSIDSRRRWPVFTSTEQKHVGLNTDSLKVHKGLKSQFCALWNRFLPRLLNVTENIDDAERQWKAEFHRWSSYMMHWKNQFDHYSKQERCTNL
T2 sequence (P06276 29-602): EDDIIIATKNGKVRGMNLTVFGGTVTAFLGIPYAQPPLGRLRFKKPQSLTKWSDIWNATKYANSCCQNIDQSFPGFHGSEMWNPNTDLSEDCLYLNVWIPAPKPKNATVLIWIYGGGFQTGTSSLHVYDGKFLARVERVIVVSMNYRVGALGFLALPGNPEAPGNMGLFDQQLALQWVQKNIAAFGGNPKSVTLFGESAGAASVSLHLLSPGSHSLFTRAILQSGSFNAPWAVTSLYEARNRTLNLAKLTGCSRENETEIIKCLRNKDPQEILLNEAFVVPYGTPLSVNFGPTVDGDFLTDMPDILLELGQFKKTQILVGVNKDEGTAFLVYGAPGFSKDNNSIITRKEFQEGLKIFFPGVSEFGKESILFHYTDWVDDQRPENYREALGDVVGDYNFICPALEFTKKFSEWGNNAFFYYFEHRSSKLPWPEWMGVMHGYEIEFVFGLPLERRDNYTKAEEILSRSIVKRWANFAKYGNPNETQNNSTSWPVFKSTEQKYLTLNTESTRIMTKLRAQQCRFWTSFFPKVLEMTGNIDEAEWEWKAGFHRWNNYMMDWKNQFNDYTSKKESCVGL

Regarding `CCC(C)C1=N[C@H]2CC=C3C[C@H]4C(=O)C[C@]5(C)[C@@H]([C@H](C)N(C)C)[C@H](O)C[C@@]5(C)[C@@H]4CC[C@H]3[C@]2(C)CO1` (mixture of isomers) [Compound 8h, (20S)-10(9->1)abeo-4,14α-dimethyl-20-dimethylamino(2′-(1-methylpropyl)-4′,4′ dihydro[3′,1′]oxazin)-5α,9-pregn-1(10)-en-16α-ol-11-one], the IC50 in test [1] (setting [3]) was 27 nM; in test [2] (setting [4]), 1540 nM.

With `CC(C)C(=O)NC1CC[C@]23CC24C(=O)C[C@]2(C)[C@@H]([C@H](C)N(C)C)[C@H](O)C[C@@]2(C)[C@@H]4CC[C@H]3[C@]1(C)CO` (stereo in doubt) [Compound 2, (20S)-3-isobutyrylamino-9,19-cyclo-4α-hydroxymethyl-4,14α-dimethyl-20-dimethylamino-5α,9-pregnan-16α-ol-11-one], the IC50 in test [1] (AChE IC50) and in test [2] (setting [4]) was more than 10000 nM each time.

As to `CC(C)C1=NC2CC[C@H]3C=C4C(=O)C[C@]5(C)[C@@H]([C@H](C)N(C)C)[C@H](O)C[C@@]5(C)[C@@H]4CC[C@H]3[C@]2(C)CO1` (stereo partly drawn) [Compound 32, (20S)-9(10->19)abeo-4,14α-dimethyl-20-dimethylamino(2′-isopropyl-4′,4′-dihydro[3′,1′]oxazin)-5α,9-pregn-1(10)-en-16α-ol-11-one], the IC50 in test [1] (setting [3]) turned out to be 112 nM; in test [2], 1440 nM.

As to `CC(C)C(=O)N[C@H]1CC=C2C[C@H]3C(=O)C[C@]4(C)[C@@H]([C@H](C)N(C)C)[C@H](O)C[C@@]4(C)[C@@H]3CC[C@H]2[C@]1(C)CO` [Compound 3, (20S)-10(9->1)abeo-4α-hydroxymethyl-3-isobutyrylamino-4,14α-dimethyl-20-dimethylamino-5α,9-pregn-1(10)-en-16α-ol-11-one], the IC50 in test [2] (setting [4]) was determined as 7410 nM.

Take `CC[C@H](C)C(=O)N[C@H]1CCC23C[C@]24C(=O)C[C@]2(C)[C@@H]([C@H](C)N(C)C)[C@H](O)C[C@@]2(C)[C@@H]4CC[C@H]3[C@]1(C)/C=N/Cc1ccccc1` (stereo partly drawn) [Compound 61, (20S)-20-dimethylamino-3β-((S)-2-methylbutyrylamino)-9,19-cyclo-4α-benzyliminomethyl-4β,14α-dimethyl-5α,9β-pregnan-16α-ol-11-one]: the IC50 in test [1] (setting [3]) was more than 100000 nM.

For the compound `C[C@@H]([C@H]1[C@H](O)C[C@@]2(C)[C@@H]3CC[C@@H]4C(=CC[C@@H]5N=C(Cc6ccccc6)OC[C@]54C)C[C@H]3C(=O)C[C@]12C)N(C)C` [Compound 8g, (20S)-10(9->1)abeo-4,14α-dimethyl-20-dimethylamino-(2′-(1-benzyl)-4′,4′-dihydro[3′,1′]oxazine)-5α,9-pregn-1(10)-en-16α-ol-11-one], the IC50 in test [2] (setting [4]) is more than 10000 nM.

On to `CC(C)C(=O)N[C@H]1CCC23C[C@]24C(=O)C[C@]2(C)[C@@H]([C@H](C)N(C)C)[C@H](O)C[C@@]2(C)[C@@H]4CC[C@H]3[C@]1(C)C=O` (stereo partly drawn) [Compound 44, (20S)-3β-isobutyrylamino-20-dimethylamino-9,19-cyclo-4β,14α-dimethyl-4α-formyl-5α,9β-pregnan-16α-ol-11-one], for which the IC50 in test [1] (setting [3]) was more than 100000 nM.

In the case of `C[C@@H]([C@H]1[C@H](O)C[C@@]2(C)[C@@H]3CC[C@@H]4C(=CC[C@@H]5N=C(c6ccccc6)OC[C@]54C)C[C@H]3C(=O)C[C@]12C)N(C)C` [Compound 8b, (20S)-10(9->1)abeo-4,14α-dimethyl-20-dimethylamino(2′-phenyl-4′,4′-dihydro[3′,1′]oxazin)-5α,9-pregn-1(10)-en-16α-ol-11-one], the IC50 in test [1] (read-out: AChE IC50) stood at 7650 nM.

Regarding `C[C@@H]([C@H]1[C@H](O)C[C@@]2(C)[C@@H]3CC[C@@H]4C5(CC[C@H](NC(=O)Cc6ccccc6)[C@@]4(C)CO)C[C@@]35C(=O)C[C@]12C)N(C)C` (stereo partly drawn) [Compound 6g, (20S)-9,19-cyclo-4α-hydroxymethyl-4,14α-dimethyl-20-dimethylamino-3 (phenylacetylamino)-5α,9-pregnan-16α-ol-11-one], the IC50 in test [1] (setting [3]) is more than 5000 nM.

As to `CC(C)C1=N[C@H]2CC=C3C[C@H]4C(=O)C[C@]5(C)[C@@H]([C@H](C)N(C)C)[C@H](OC(=O)C(C)(C)C)C[C@@]5(C)[C@@H]4CC[C@H]3[C@]2(C)CO1` [Compound 39, (20S)-10(9->1)abeo-20-dimethylamino-4β,14α-dimethyl-16α-pivalyl-(2′-isopropyl-3,29-dihydro-4H-[1,3]-oxazine)-5α,9β-pregn-1(10)-en-11-one], the IC50 in test [1] (AChE IC50) came out at 198 nM.

Consider `CC[C@H](C)C(=O)N[C@H]1CCC23C[C@@]24[C@@H](CC[C@H]3[C@]1(C)CO)[C@]1(C)C[C@@H](O)[C@H]([C@H](C)N(C)C)[C@@]1(C)C[C@@H]4O` (stereo partly drawn) [Compound 35, (20S)-20-dimethylamino-3β-((S)-2-methylbutyrylamino)-9,19-cyclo-4α-hydroxymethyl-4β,14α-dimethyl-5α,9β-pregnan-11β,16α-diol-11-one], for which the IC50 in test [1] (setting [3]) was more than 100000 nM.

In the case of `CC(C)C(=O)N[C@H]1CCC23C[C@]24C(=O)C[C@]2(C)[C@@H]([C@H](C)N(C)C)[C@H](O)C[C@@]2(C)[C@@H]4CC[C@H]3[C@]1(C)/C=N/Cc1ccccc1` (stereo partly drawn) [Compound 45, (20S)-20-dimethylamino-3β-(isobutyrylamino)-9,19-cyclo-4α-benzyliminomethyl-4β,14α-dimethyl-5α,9β-pregnan-16α-ol-11-one], the IC50 in test [1] (setting [3]) was more than 100000 nM.

In test [1] (AChE IC50), `CC(=O)O[C@@H]1C[C@@]2(C)[C@@H]3CC[C@@H]4C(=CC[C@@H]5N=C(C(C)C)OC[C@]54C)C[C@H]3C(=O)C[C@]2(C)[C@H]1[C@H](C)N(C)C` [Compound 40] came in with an IC50 of 112 nM.

Turning to `CN[C@@H](C)[C@H]1[C@H](OC(=O)C(C)(C)C)C[C@@]2(C)[C@@H]3CC[C@@H]4C5(CC[C@H](NC(=O)C(C)C)[C@@]4(C)C=O)C[C@@]35C(=O)C[C@]12C` (stereo partly drawn) [Compound 43, (20S)-3β-isobutyrylamino-20-methylamino-9,19-cyclo-4β,14α-dimethyl-4α-formyl-16α-pivalyl-5α,9β-pregnan-11-one], the IC50 in test [1] (setting [3]) is more than 100000 nM.

For the compound `CC[C@H](C)C(=O)N[C@H]1CCC23C[C@]24C(=O)C[C@]2(C)[C@@H]([C@H](C)N(C)C)[C@H](O)C[C@@]2(C)[C@@H]4CC[C@H]3[C@]1(C)CNCc1ccccc1` (stereo partly drawn) [Compound 62, (20S)-20-dimethylamino-3β-((S)-2-methylbutyrylamino)-9,19-cyclo-4α-benzylaminomethyl-4β,14α-dimethyl-5α,9β-pregnan-16α-ol-11-one], the IC50 in test [1] (setting [3]) was not below 100000 nM.

As for `CC(C)C(=O)N[C@H]1CCC23C[C@]24C(=O)C[C@]2(C)[C@@H]([C@H](C)N(C)C)[C@H](OC(=O)C(C)(C)C)C[C@@]2(C)[C@@H]4CC[C@H]3[C@]1(C)/C=N/C([Si](C)(C)C)[Si](C)(C)C` (stereo partly drawn) [Compound 54, (20S)-3β-isobutyrylamino-20-dimethylamino-9,19-cyclo-4β,14α-dimethyl-4α-(bis-(trimethylsilanyl)methylimino)methyl-16α-pivalyl-5α,9β-pregnan-11-one], the IC50 in test [1] (setting [3]) is more than 100000 nM.

As to `Cc1ccc(S(=O)(=O)O[C@@H]2C[C@@]3(C)[C@@H]4CC[C@@H]5C6(CC[C@H](NC(=O)C(C)C)[C@@]5(C)CO)C[C@@]46C(=O)C[C@]3(C)[C@H]2[C@H](C)N(C)C)cc1` (stereo partly drawn) [Compound 36, (20S)-3β-isobutyrylamino-20-dimethylamino-9,19-cyclo-4β,14α-dimethyl-4α-hydroxymethyl-16α-tosyl-5α,9β-pregnan-11-one], the IC50 in test [1] (setting [3]) is more than 100000 nM.

Take `CC[C@H](C)C(=O)N[C@H]1CC=C2C[C@H]3C(=O)C[C@]4(C)[C@@H]([C@H](C)N(C)C)[C@H](O)C[C@@]4(C)[C@@H]3CC[C@H]2[C@]1(C)/C=N/Cc1ccccc1` [Compound 68, (20S)-10(9->1)-abeo-20-dimethylamino-3-((S)-2-methylbutyrylamino)-4α-benzyliminomethyl-4β,14α-dimethyl-5α,9β-pregn-1(10)-en-16α-ol-11-one]: the IC50 in test [1] (read-out: AChE IC50) came to 780 nM.

For the compound `CCC(CC)C1=N[C@H]2CC=C3C[C@H]4C(=O)C[C@]5(C)[C@@H]([C@H](C)N(C)C)[C@H](O)C[C@@]5(C)[C@@H]4CC[C@H]3[C@]2(C)CO1` [Compound 8i, (20S)-10(9->1)abeo-4,14α-dimethyl-20-dimethylamino(2′-(1-ethylpropyl)-4′,4′-dihydro[3′,1′]oxazin)-5α,9-pregn-1(10)-en-16α-ol-11-one], the IC50 in test [2] (setting [4]) came to 380 nM.

For `CC[C@H](C)C1=N[C@H]2CC=C3C[C@H]4C(=O)C[C@]5(C)[C@@H]([C@H](C)N(C)C)[C@H](O)C[C@@]5(C)[C@@H]4CC[C@H]3[C@]2(C)CN1` [Compound 71, (20S)-10(9->1)-abeo-20-dimethylamino-4β,14α-dimethyl-(2-(S)-sec-butyl-5β-methyl-1,4,5,6-tetrahydro-pyrimidin-5-yl)-5α,9β-pregnan-1(10)-en-16α-ol-11-one], in test [1] (read-out: AChE IC50), the IC50 is 28 nM.

Regarding `CC(C)C1=N[C@H]2CCC34C[C@]35C(=O)C[C@]3(C)[C@@H]([C@H](C)N(C)C)[C@H](OC(=O)C(C)(C)C)C[C@@]3(C)[C@@H]5CC[C@H]4[C@]2(C)CO1` (stereo partly drawn) [Compound 38, (20S)-20-dimethylamino-9,19-cyclo-4β,14α-dimethyl-16α-pivalyl-(2′-isopropyl-3,29-dihydro-4H-[1,3]-oxazine)-5α,9β-pregn-11-one], the IC50 in test [1] (setting [3]) stood at 181 nM.

In the case of `CC[C@H](C)C(=O)N[C@H]1CC=C2C[C@H]3C(=O)C[C@]4(C)[C@@H]([C@H](C)N(C)C)[C@H](O)C[C@@]4(C)[C@@H]3CC[C@H]2[C@]1(C)C=O` [Compound 67, (20S)-10(9->1)-abeo-20-dimethylamino-3-((S)-2-methylbutyrylamino)-4α-formyl-4β,14α-dimethyl-5α,9β-pregn-1(10)-en-16α-ol-11-one], the IC50 in test [1] (setting [3]) is more than 100000 nM.

As for `CC(=O)OC[C@]1(C)[C@@H](NC(=O)C(C)C)CCC23C[C@]24C(=O)C[C@]2(C)[C@@H]([C@H](C)N(C)C)[C@H](OC(C)=O)C[C@@]2(C)[C@@H]4CC[C@H]31` (stereo partly drawn) [Compound 42, (20S)-16α-acetyl-3β-isobutyrylamino-20-dimethylamino-9,19-cyclo-4β,14α-dimethyl-4α-acetylmethyl-5α,9β-pregnan-11-one], in test [1] (setting [3]), the IC50 was more than 100000 nM.
